In US20030148269A1, “Centrifugally-enhanced method of determining ligand/target affinity” (priority 1999, published 2003):
Read-outs that look alike come from different tables or passages of the source.

Tests used:
[1] = Solubility in the centrifuge carrier solvent (buffer), spun without protein; assay type: physicochemical
Experimental: (§1) Proteins and protein fragments were isolated from recombinant material produced in E. coli as described in detail below. Proteins and protein fragments were dialyzed into standard buffers comprising either a) a mixture of 20 mM ammonium bicarbonate and 1 mM sodium azide, the pH adjusted to pH 7.2 by the addition of acetic acid, or b) 50 mM Tris-HCl, 30 mM KCl, 10 mM magnesium acetate, 10 mM 2-mercaptoethanol, 1 mM sodium azide, and 10% glycerol, pH adjusted to 7.8. In the case of the first buffer system, additional ingredients, specific to each protein, were added to the buffer mixture which included 5 mM 2-mercaptoethanol for erythromycin resistant methylase (Erm-AM), and both 5 mM 2-mercaptoethanol and 10 mM calcium chloride for the stromelysin catalytic domain (SCD). Initial protein or protein fragment concentrations ranged between 100 μM and 1 mM.
Test compounds were made up in concentrated solutions in dimethyl sulfoxide and diluted into the protein or protein fragment buffer solutions such that the final concentration of dimethyl sulfoxide in the buffer solutions was 1% volume/volume. As a result, each compound in the mixture of test compounds had equal access to available binding sites on the target molecule.
The analysis was carried out with a 25-compound library using the spin-screen method of the present invention with the compound concentration gradients being determined by mass spectrometry. Sample preparation, centrifugation, analysis by mass spectrometry, and data analysis were according to the techniques described above under the heading “General Methodology.” The results are shown in FIGS. 3A and 3B. The figures represent planar cuts of the three-dimensional surface contour plot defined by the three axes: m/z, sample fraction, and mass spectral signal intensity. The planar cuts are taken at comparatively high values constant values of m/z. That is to say, at m/z signal levels which detected only the most strongly binding ligands in the 25-compound library.
The analysis was carried out with a 25-compound library using the spin-screen method of the present invention with the compound concentration gradients being determined by mass spectrometry. Sample preparation, centrifugation, analysis by mass spectrometry, and data analysis were according to the techniques described above under the heading “General Methodology.” The results are presented in FIGS. 5A and 5B.

[2] = target: T1, erythromycin resistant methylase (Erm-AM) (Streptococcus pneumoniae, UniProt P21236); assay type: binding; conditions: 25-compound library, mass spectrometry of five fractions, with Erm AM vs buffer only
T1 construct: made in house; host or cells: E. coli BL21(DE3)/pV4, pET-24(+)
T1 sequence (P21236 whole entry, change not shown): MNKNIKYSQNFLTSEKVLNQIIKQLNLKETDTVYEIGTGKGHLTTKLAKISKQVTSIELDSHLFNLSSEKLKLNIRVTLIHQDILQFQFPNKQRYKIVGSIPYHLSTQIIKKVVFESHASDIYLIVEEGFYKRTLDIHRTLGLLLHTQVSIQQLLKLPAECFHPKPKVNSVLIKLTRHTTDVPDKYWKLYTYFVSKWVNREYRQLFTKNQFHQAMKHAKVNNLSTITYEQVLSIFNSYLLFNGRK
Experimental: as §1
(§2) Test compounds were made up in concentrated solutions in dimethyl sulfoxide and diluted into the protein or protein fragment buffer solutions such that the final concentration of dimethyl sulfoxide in the buffer solutions was 1% volume/volume.
The compounds were added to the protein or buffer solutions in 7 mm×20 mm polycarbonate centrifuge tubes, mixed by vortexing, and placed in the centrifuge. Each mixture was then subjected to centrifugation at a speed and for a period of time sufficient to clear the solution of macromolecular target, but not of ligand. Centrifugation was carried out either in a Model TL-100 ultracentrifuge at 100,000 rpm using a TLA-100 rotor, or in a Model L-70 ultracentrifuge at 42,000 rpm using a type 42.2 rotor. (Both centrifuges are manufactured by Beckman Instruments, 1050 Page Mill Road, Palo Alto, Calif. […], USA.)
Following centrifugation, the tubes were removed from the rotor and the tube contents divided into equal volume fractions. Any reasonable number of fractions may be employed; typically four or five fractions are used. To take the fractions, a pipette was carefully inserted into the liquid column in the sample tube to a point just below the liquid meniscus. […] The fractions were individually dispensed into microfuge tubes for analysis.
Mass spectrometric analysis of the samples was performed using either electrospray ionization (ESI) or atmospheric pressure chemical ionization (APCI) techniques. The ESI technique employed either a Model TSQ-700 or a Model LCQ mass spectrometer, and the APCI technique employed a Model LCQ mass spectrometer (both instruments manufactured by the Finnigan Corporation, 355 River Oaks Parkway, San Jose, Calif. 95134, USA).
For ESI analysis, fraction samples were diluted 1:5 with 50% aqueous acetonitrile, leaving the protein or protein fragment in solution. Ten-microliter aliquots, each representing about 10% of the sample, were introduced individually into the instrument by flow injection using 50% aqueous acetonitrile as the carrier. For initial studies with APCI, fractions were likewise diluted 1:5 with 50% aqueous acetonitrile. […] To reduce this background, subsequent samples analyzed by the APCI technique were diluted 1:5 with neat acetonitrile which caused the proteins or protein fragments to release their bound test compounds and precipitate. Sample solutions were then clarified by centrifugation in a microfuge for five minutes prior to analysis by APCI.

[3] = target: yeast ribosomes isolated from Saccharomyces cerevisiae; experiment: spin-screen: centrifugation with yeast ribosomes, GFP fluorescence in each of five fractions
[4] = target: T2, stromelysin catalytic domain (SCD) (Homo sapiens, UniProt P08254); experiment: Affinity (Ki) for SCD previously determined by another method; assay type: binding
Target sequence in this assay (P08254 100-273): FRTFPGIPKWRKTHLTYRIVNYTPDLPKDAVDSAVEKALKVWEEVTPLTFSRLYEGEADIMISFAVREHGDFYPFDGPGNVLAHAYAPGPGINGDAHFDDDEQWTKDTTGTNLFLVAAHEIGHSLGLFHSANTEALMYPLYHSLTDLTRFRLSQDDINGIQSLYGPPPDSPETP

[5] = target: T2, stromelysin catalytic domain (SCD); experiment: Spin-screen (centrifugation) affinity binding to SCD, concentration gradients by HPLC; parameters: coding for amino acid residues 81-256 plus an initiating methionine aminoacyl residue; initiating methionine (N); made in house; host or cells: E. coli BL21(DE3)/pLysS, plasmid pETST-81-256 (pET3d); conditions: 100 μM ligand, 100 μM SCD; HPLC of five fractions; with SCD vs buffer only
Experimental: as §1, §2
Target sequence in this assay (P08254 98-272): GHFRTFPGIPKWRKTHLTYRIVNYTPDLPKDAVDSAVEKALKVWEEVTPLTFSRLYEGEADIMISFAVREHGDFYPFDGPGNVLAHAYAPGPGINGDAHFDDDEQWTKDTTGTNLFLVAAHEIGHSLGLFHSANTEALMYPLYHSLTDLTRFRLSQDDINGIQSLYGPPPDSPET
The compounds were added to the protein or buffer solutions in 7 mm×20 mm polycarbonate centrifuge tubes, mixed by vortexing, and placed in the centrifuge. […]

[6] = buffer with 1% dimethyl sulfoxide

Row | Compound | Binding to Erm AM from concentration gradient after centrifugation [2] | fraction of total fluorescence (fraction of total fluorescence) [3] | further results
1 | Nc1nc(NC2CCCCC2)nc(N2CCCCC2)n1 [N-cyclohexyl-6-(1-piperidinyl)-1,3,5-triazine-2,4-diamine] | strongly bind |  | Solubility in the carrier solvent [1]: soluble; Binding to Erm AM from concentration gradient after centrifugation ([2]; listed as m/z=277): bound more strongly to Erm-AM than the compound at m/z=286
2 | O=C(O)c1ccccc1C(=O)OC(c1ccccc1)c1cccc(Cl)c1 (centres unmarked) [1,2-benzenedicarboxylic acid, mono[(3-chlorophenyl)phenylmethyl] ester] | bound strongly |  | Binding to Erm AM from concentration gradient after centrifugation ([2]; mono [(3-chloro-phenyl)phenylmethyl] ester): bind to Erm AM
3 | CN(CCCc1c(O)cc(Cl)cc1Cl)c1nc(N)nc(NC2CCCCC2)n1 [N′cyclohexyl-N-[3-(2,4-dichloro-6-hydroxyphenyl)propyl]-N-methyl-1,3,5triazine-2,4,6-triamine] | strongly bind |  | Solubility in the carrier solvent [1]: insoluble
4 | Nc1cc(Cl)c(S(N)(=O)=O)cc1S(N)(=O)=O [4-amino-6-chloro-1,3benzenesulfonamide] | medium binding |  | Solubility in the carrier solvent [1, 6]: soluble; Binding to Erm AM from concentration gradient after centrifugation ([2]; listed as 4-amino-6-chloro-1,3-benzenesulfonamide): bind to Erm AM
5 | O=C(Nc1ccc(C(=O)O)cc1)Nc1cccc(C(F)(F)F)c1 [4-[[[[3-(trifluoromethyl)phenyl]amino]-carbonyl]amino]benzoic acid] | bound weakly |  | Binding to Erm AM from concentration gradient after centrifugation ([2]; listed as 4-[[[(3-trifluoromethyl)-phenyl]amino]carbonyl]amino]benzoic acid): bind to Erm AM
6 | GFP-EF3 fusion protein GFP-980-1008 |  | 0.2 | 
7 | GFP-EF3 fusion protein GFP-980-1008:1025-1031 |  | 0.2 | 
8 | N-[3-(2,4-dichloro-6-hydroxyphenyl)propyl]-N′-(2,3-dihydro-1H-inden-2-yl) | strongly bind |  | Solubility in the carrier solvent [1]: insoluble
9 | O=c1cc(O)c2ccccc2n1-c1ccc(OCc2ccccc2)cc1 [4-hydroxy-1-[4-(phenylmethoxy)phenyl]-2(1H)-quinoline] | strongly bound |  | Solubility in the carrier solvent [1, 6]: soluble; Binding to Erm AM from concentration gradient after centrifugation ([2]; listed as 4-hydroxy-1-[4-(phenylmethoxy)-phenyl]-2(1H)-quinoline): bind to Erm AM
10 | Nc1nc(NC2CCCCC2)nc(-c2ccc(O)cc2)n1 [4-[4-amino-6-(cyclohexylamino)-1,3,5-triazin-2-yl]phenol] | strongly bind |  | Solubility in the carrier solvent [1]: soluble
11 | GFP-EF3 fusion protein GFP-980-1019 |  | 0.2 | 
12 | GFP-EF3 fusion protein GFP-980-1013 |  | 0.2 | 
13 | N#Cc1ccc(-c2ccc(O)cc2)cc1 [4′-hydroxy-1,1-biphenyl-4-carbonitrile] |  |  | Ki [4]: ~1000 µM; Binding to SCD from concentration gradient after centrifugation [5]: binds weakly
14 | GFP-EF3 fusion protein GFP-980-1025 |  | 0.2 | 
